As usually defined, the IC50 is the midpoint of a concentration-inhibition curve.

Sequence of Factor D (P00746 26-253): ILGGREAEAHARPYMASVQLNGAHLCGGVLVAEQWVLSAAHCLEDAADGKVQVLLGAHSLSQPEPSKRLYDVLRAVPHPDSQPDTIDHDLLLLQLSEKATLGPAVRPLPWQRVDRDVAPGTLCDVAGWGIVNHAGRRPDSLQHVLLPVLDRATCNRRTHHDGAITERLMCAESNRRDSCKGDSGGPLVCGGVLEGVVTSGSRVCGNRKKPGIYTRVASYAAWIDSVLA

This assay concerns the target Factor D (Homo sapiens (Human), UniProt P00746). The assay can be described thus: Factor D esterolytic assay (Z-Lys-SBzl substrate, DTNB, 405 nm). The format is biochemical. The settings on record: Z-Lys-SBzl 1.29 mM, pH 7.5, 10% DMSO, tested a minimum of three times, read-out: Measured Ki (IC50) Value for Compounds: IC50. The essentials: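 Thioester hydrolysis (Z-Lys-SBzl, 1.29 mM) by human Factor D ([…]) detected through DTNB color at 405 nm over 600 sec, minus 690 nm background. Buffer: 100 mM HEPES pH 7.5, 500 mM NaCl, 10% DMSO; optional room-temperature preincubation before substrate. IC50 derived from percent rate inhibition; at least three runs.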
`NCc1cccc(-c2cc(COc3ccccc3CC(=O)O)cc3cc(C(=O)NCc4ccccc4)oc23)c1` [Compound 290c, 2-(2-((7-(3-(aminomethyl)phenyl)-2-(benzylcarbamoyl)benzofuran-5-yl)methoxy)phenyl)acetic acid]: the half-inhibitory concentration (IC50) is < 1 µM. Turning to `NCc1cccc(-c2cc(COc3c(CC(=O)O)ccc4occc34)cc3ccoc23)c1` [Compound 291g, 2-(4-((7-(3-(aminomethyl)phenyl)benzofuran-5-yl)methoxy)benzofuran-5-yl)acetic acid], the IC50 is < 1 µM. On to `Cc1ccc(CC(=O)O)c(OCc2cc(-c3cccc(CN)c3)c3occc3c2)c1C` [Compound 292f, 2-(2-((7-(3-(aminomethyl)phenyl)benzofuran-5-yl)methoxy)-3,4-dimethylphenyl)acetic acid], for which the IC50 is < 1 µM. For the compound `NCc1cccc(-c2cc(COc3ccccc3C(=O)O)cc3ccoc23)c1` [Compound 293c, 2-((7-(3-(aminomethyl)phenyl)benzofuran-5-yl)methoxy)benzoic acid], the IC50 is < 1 µM. In the case of `NCc1cccc(-c2cc(COc3ccccc3CC(=O)O)cc3cc(CNC(=O)c4ccccc4)oc23)c1` [Compound 294f, 2-(2-((7-(3-(aminomethyl)phenyl)-2-(benzamidomethyl)benzofuran-5-yl)methoxy)phenyl)acetic acid] it was < 1 µM. As for `N#Cc1cccc(C(=O)NCc2cc3cc(COc4ccccc4CC(=O)O)cc(-c4cccc(CN)c4)c3o2)c1` [Compound 295c, 2-(2-((7-(3-(aminomethyl)phenyl)-2-((3-cyanobenzamido)methyl)benzofuran-5-yl)methoxy)phenyl)acetic acid], the IC50 is < 1 µM. `NCc1cccc(-c2cc(COc3ccccc3CC(=O)O)cc3cc(CNC(=O)Cc4ccccc4)oc23)c1` [Compound 296c, 2-(2-((7-(3-(aminomethyl)phenyl)-2-((2-phenylacetamido)methyl)benzofuran-5-yl)methoxy)phenyl)acetic acid]: the half-maximal inhibitory concentration (IC50) was < 1 µM. In the case of `NCc1cccc(-c2cc(COc3ccccc3CC(=O)O)cc3cc(CNC(=O)c4ccc(F)cc4F)oc23)c1` [Compound 297c, 2-(2-((7-(3-(aminomethyl)phenyl)-2-((2,4-difluorobenzamido)methyl)benzofuran-5-yl)methoxy)phenyl)acetic acid] it was < 1 µM; in that of `NCc1cccc(-c2cc(COc3cc4occc4cc3CC(=O)O)cc3ccoc23)c1` [Compound 298f, 2-(6-((7-(3-(aminomethyl)phenyl)benzofuran-5-yl)methoxy)benzofuran-5-yl)acetic acid], < 1 µM; in that of `Cc1ccc(CC(=O)O)c(OCc2cc(-c3cccc(CN)c3)c3oc(F)cc3c2)c1` [Compound 299c, 2-(2-((7-(3-(aminomethyl)phenyl)-2-fluorobenzofuran-5-yl)methoxy)-4-methylphenyl)acetic acid], < 1 µM. In the case of `NCc1nccc(-c2cc(COc3ccccc3CC(=O)O)cc3cc(F)oc23)c1F` [Compound 300c, 2-(2-((7-(2-(aminomethyl)-3-fluoropyridin-4-yl)-2-fluorobenzofuran-5-yl)methoxy)phenyl)acetic acid], the IC50 was < 1 µM. Regarding `NCc1cc(-c2cc(COc3ccccc3CC(=O)O)cc3cc(F)oc23)ccn1` [Compound 301b, 2-(2-((7-(2-(aminomethyl)pyridin-4-yl)-2-fluorobenzofuran-5-yl)methoxy)phenyl)acetic acid], the IC50 was < 1 µM. `NCc1cccc(-c2cc(COc3ccccc3CC(=O)O)cc3cc(COCc4cccnc4)oc23)c1` [Compound 302f, 2-(2-((7-(3-(aminomethyl)phenyl)-2-((pyridin-3-ylmethoxy)methyl)benzofuran-5-yl)methoxy)phenyl)acetic acid]: the IC50 is < 1 µM.

`COc1ccc(CC(=O)O)c(OCc2cc(-c3cccc(CN)c3)c3occc3c2)c1` [Compound 303g, 2-(2-((7-(3-(aminomethyl)phenyl)benzofuran-5-yl)methoxy)-4-methoxyphenyl)acetic acid]: the concentration for half-maximal inhibition (IC50) was < 1 µM. For the compound `Cc1ccc(CC(=O)O)c(OCc2cc(-c3cccc(CN)c3F)c3occc3c2)c1C` [Compound 304b, 2-(2-((7-(3-(aminomethyl)-2-fluorophenyl)benzofuran-5-yl)methoxy)-3,4-dimethylphenyl)acetic acid], the IC50 is < 1 µM.

Consider `Cc1ccc(CC(=O)O)c(OCc2cc(-c3ccnc(CN)c3F)c3occc3c2)c1C` [Compound 305d, 2-(2-((7-(2-(aminomethyl)-3-fluoropyridin-4-yl)benzofuran-5-yl)methoxy)-3,4-dimethylphenyl)acetic acid], for which the IC50 was < 1 µM.

Consider `CCN(CC)c1ccc(CC(=O)O)c(OCc2cc(-c3cccc(CN)c3)c3occc3c2)c1` [Compound 306f, 2-(2-((7-(3-(aminomethyl)phenyl)benzofuran-5-yl)methoxy)-4-(diethylamino)phenyl)acetic acid], for which the IC50 was < 1 µM. On to `CC(C)c1ccc(CC(=O)O)c(OCc2cc(-c3cccc(CN)c3F)c3occc3c2)c1` [Compound 307f, 2-(2-((7-(3-(aminomethyl)-2-fluorophenyl)benzofuran-5-yl)methoxy)-4-isopropylphenyl)acetic acid], for which the IC50 was < 1 µM.

For the compound `CC(C)(C)c1cc(OCc2cc(-c3cccc(CN)c3)c3occc3c2)c(CC(=O)O)cc1Cl` [Compound 308h, 2-(2-((7-(3-(aminomethyl)phenyl)benzofuran-5-yl)methoxy)-4-(tert-butyl)-5-chlorophenyl)acetic acid], the half-inhibitory concentration (IC50) is < 1 µM. In the case of `COCc1cc2cc(COc3cc(C(N)=O)ccc3CC(=O)O)cc(-c3cccc(CN)c3)c2o1` [Compound 309h, 2-(2-((7-(3-(aminomethyl)phenyl)-2-(methoxymethyl)benzofuran-5-yl)methoxy)-4-carbamoylphenyl)acetic acid] it was < 1 µM. In the case of `NCc1cc(-c2cc(COc3ccccc3CC(=O)O)cc3ccsc23)ccn1` [Compound 310c, 2-(2-((7-(2-(aminomethyl)pyridin-4-yl)benzo[b]thiophen-5-yl)methoxy)phenyl)acetic acid], the IC50 is < 1 µM. For `NCc1cccc(-c2cc(COc3ccccc3Cc3nn[nH]n3)cc3ccoc23)c1` [Compound 311b, (3-(5-((2-((2H-tetrazol-5-yl)methyl)phenoxy)methyl)benzofuran-7-yl)phenyl)methanamine], the IC50 was > 10 µM.

For the compound `CC(C)c1ccc(CC(=O)O)c(OCc2cc(-c3cccc(CN)c3)c3occc3c2)c1` [Compound 312b, 2-(2-((7-(3-(aminomethyl)phenyl)benzofuran-5-yl)methoxy)-4-isopropylphenyl)acetic acid], the IC50 was < 1 µM. As to `NCc1cccc(-c2cc(COc3cc(-c4ccoc4)ccc3CC(=O)O)cc3ccoc23)c1` [Compound 313c, 2-(2-((7-(3-(aminomethyl)phenyl)benzofuran-5-yl)methoxy)-4-(furan-3-yl)phenyl)acetic acid], the IC50 was < 1 µM. On to `Cc1cccc(OCc2cc(-c3cccc(CN)c3)c3occc3c2)c1CC(=O)O` [Compound 314f, 2-(2-((7-(3-(aminomethyl)phenyl)benzofuran-5-yl)methoxy)-6-methylphenyl)acetic acid], for which the IC50 was < 1 µM. Take `CCc1ccc(CC(=O)O)c(OCc2cc(-c3cccc(CN)c3F)c3occc3c2)c1` [Compound 315f, 2-(2-((7-(3-(aminomethyl)-2-fluorophenyl)benzofuran-5-yl)methoxy)-4-ethylphenyl)acetic acid]: the IC50 is < 1 µM. On to `CCc1ccc(CC(=O)O)c(OCc2cc(-c3cccc(CN)c3)c3occc3c2)c1` [Compound 316b, 2-(2-((7-(3-(aminomethyl)phenyl)benzofuran-5-yl)methoxy)-4-ethylphenyl)acetic acid], for which the IC50 was < 1 µM. Take `CC(C)(C)c1ccc(CC(=O)O)c(OCc2cc(-c3cccc(CN)c3)c3occc3c2)c1` [Compound 317f, 2-(2-((7-(3-(aminomethyl)phenyl)benzofuran-5-yl)methoxy)-4-(tert-butyl)phenyl)acetic acid]: the IC50 is < 1 µM. In the case of `NCc1cccc(-c2cc(COc3cc(-c4ccco4)ccc3CC(=O)O)cc3ccoc23)c1` [Compound 318c, 2-(2-((7-(3-(aminomethyl)phenyl)benzofuran-5-yl)methoxy)-4-(furan-2-yl)phenyl)acetic acid] it was < 1 µM; in that of `NCc1cccc(-c2cc(COc3cc(-c4cccnc4)ccc3CC(=O)O)cc3ccoc23)c1` [Compound 319c, 2-(2-((7-(3-(aminomethyl)phenyl)benzofuran-5-yl)methoxy)-4-(pyridin-3-yl)phenyl)acetic acid], < 1 µM. In the case of `Cc1cc(-c2ccc(CC(=O)O)c(OCc3cc(-c4cccc(CN)c4)c4occc4c3)c2)ccn1` [Compound 320c, 2-(2-((7-(3-(aminomethyl)phenyl)benzofuran-5-yl)methoxy)-4-(2-methylpyridin-4-yl)phenyl)acetic acid] it was < 1 µM; in that of `COc1ccc(C(SC)C(=O)O)c(OCc2cc(-c3cccc(CN)c3)c3occc3c2)c1` (stereo not shown) [Compound 321f, 2-(2-((7-(3-(aminomethyl)phenyl)benzofuran-5-yl)methoxy)-4-methoxyphenyl)-2-(methylthio)acetic acid], < 1 µM; in that of `Cc1cc(-c2ccc(CC(=O)O)c(OCc3cc(-c4cccc(CN)c4)c4occc4c3)c2)cnc1F` [Compound 322c, 2-(2-((7-(3-(aminomethyl)phenyl)benzofuran-5-yl)methoxy)-4-(6-fluoro-5-methylpyridin-3-yl)phenyl)acetic acid], < 1 µM. Take `COc1ncc(-c2ccc(CC(=O)O)c(OCc3cc(-c4cccc(CN)c4)c4occc4c3)c2)cc1C` [Compound 322d, 2-(2-((7-(3-(aminomethyl)phenyl)benzofuran-5-yl)methoxy)-4-(6-methoxy-5-methylpyridin-3-yl)phenyl)acetic acid]: the IC50 was < 1 µM.

Values taken from patent US11370774B2, “Substituted benzofuran, benzopyrrole, benzothiophene, and structurally related complement inhibitors” (BioCryst Pharmaceuticals, Inc., priority 2018, dated 2022).
